{"source": "patent US5346693A", "about": "“Depigmenting cosmetic or dermatological composition containing arbutoside derivatives” (L'Oreal, priority 1991, dated 1994)", "origin": "cited, not measured here", "test_system": "melanocyte"}
{"smiles": "Oc1ccc(O)cc1", "note": "[hydroquinone]", "values": [{"measurement": "cytotoxicity to the melanocyte", "result": "cytotoxic to the melanocyte"}]}
